Laboratory results published in patent US7527952B2 (Vertex Pharmaceuticals Incorporated, priority 1996, dated 2009).

How the values were obtained:
[1] = test system: human type II IMPDH mutants of Ser 275, Ser 327 and Gln 368; test: MPA inhibition of IMPDH mutants of other active site residues; type: biochemical; details: mutations of Ser 275, Ser 327 and Gln 368
Procedure: Residues which make direct contact with MPA also were modified.
Cultures (500 ml) were grown at 37° C. for 14 to 16 hours after IPTG induction, and typically yielded 2 grams of cell paste. Cells were resuspended in 50 mM Tris, pH 8.0, 150 mM KCl, 3 mM EDTA, 2 mM DTT buffer containing 10% urea, and then lysed by addition of lysozyme (1 mg/g cell paste) and sonication. IMPDH wild-type and mutant proteins were precipitated from crude lysates by 25% w/v ammonium sulfate. Up to 150 mgs of at least 65%-70% pure IMPDH was obtained by this single purification step. The partially purified IMPDH was resuspended in 50 mM Tris, pH 8.0, 100 mM KCl, 3 mM EDTA, 2 mM DTT, 10% glycerol buffer and used for kinetic analysis. Second order rate constants (k cat/Km, M^−1sec^−1) were calculated from IMP titration data at saturating (400 mM). NAD concentration obtained by monitoring the rate of NADH production at 340 nm at 37° C. […] Ki app. values for MPA were obtained from the rate vs. inhibitor data of IMPDH mutants at saturating IMP and NAD concentrations.

[2] = test system: murine blastoma cells; details: cells selected for resistance, carrying the Thr 333 to Ile mutation; cited from earlier work
[3] = compared with MPA; cited from earlier work

Row | Compound | effect of mutation on drug inhibition [1] | increased resistance to MPA [2] | fold less potent than MPA in a cellular assay [3]
1 | mycophenolic acid [MPA] | little effect | 10,000 fold | –
2 | COc1c(CC=C(C)CCC(=O)O)cc2c(c1C)COC2=O [des-hydroxy-MPA] | – | – | at least 1,000 fold
